Data on 21 compounds can be found in patent publication US20230115335A1, “PYRAZOLE DERIVATIVES WITH ANTICANCER ACTIVITY” (BOARD OF REGENTS, THE UNIVERSITY OF TEXAS SYSTEM, priority 2021, published 2023).

Data set [1] relates to CEM cells. As to the kind of experiment: Phosphatidylserine externalization, Annexin V-FITC/PI assay. To be noted: positive control for death. Format: cell-based, human. As to the method:
FIG. 1. […] CEM cells were treated at the CC50 and twice (2×) that concentration of SSK-3. Note that PS externalization is an early marker of apoptosis. * Indicates P value less than 0.001.
SSK-3 induces significant phosphatidylserine externalization. To corrobotate whether SSK-3 utilizes apoptosis to induce cell death, we measured phosphatidylserine (PS) externalization in SSK-3-treated CEM cells by using the Annexin V-FITC/PI assay (3, 4).

Data set [2] has as its system Jurkat. Put plainly: DNS cytotoxicity assay, Jurkat. In kind it is cell-based, human. To be noted: Homo sapiens, Jurkat; Lymphoma-Leukemia; 48 hrs. From the text:
Using the high throughput Differential Nuclear Staining (DNS) screening assay (Lema et al., Current Cellular Biochemistry 1, 1-14, 2011) 15 pyrazole compounds were synthesized and screened on the human T-cell Acute Lymphoblastic Leukemia CEM cell line (Tables 1 and 2). […] The compounds were synthesized based on a pyrazole backbone structure previously determined to have potent cytotoxic activity (FIG. 5). Several commercial and non-commercial analogues (see Table 3) have been tested and determined that the ones with highest activity have a similar structure circled in FIG. 5. […] SSK-3 has been tested on a few cancer cell lines (see Table 4) and also found to induce programmed cell death via a variety of biochemical assays. […] Since the non-adherent (free floating) lymphoma/leukemia cell lines divide faster than the adherent cell lines, they were incubated for a shorter period (48 h) of time with the compound.
SSK-3 has potent cytotoxic activity against a panel of human cancer cell lines. The cytotoxic activity of SSK-3 was examined by the DNS assay (Lema et al., Current Cellular Biochemistry 1, 1-14, 2011). Lymphoma/leukemia cell lines, which grow in suspension, were incubated for 48 h with the compounds. Since the adherent cells generally divide at a slower rate than the non-adherent cell lines, the MDA-MB231, HCC1419, T47D, COLO205, PANC-1, A-549 adherent cancer cells lines were incubated for 72 h in the presence of the compounds. After treatment, images were acquired and analyzed to determine percentages of live/dead cells and their cytotoxicity. […] The Hs-27 non-cancerous human foreskin fibroblast cell line was used for comparison purposes.

Data set [3] relates to MDA-MB231. As to the kind of experiment: DNS cytotoxicity assay, MDA-MB-231. Format: cell-based. To be noted: Homo sapiens, 72 hr incubations, read-out: Cell Line CC50 MDA-MD-231*. As to the method:
(§1) Since the non-adherent (free floating) lymphoma/leukemia cell lines divide faster than the adherent cell lines, they were incubated for a shorter period (48 h) of time with the compound.
(§2) Lymphoma/leukemia cell lines, which grow in suspension, were incubated for 48 h with the compounds. […] After treatment, images were acquired and analyzed to determine percentages of live/dead cells and their cytotoxicity. […] The Hs-27 non-cancerous human foreskin fibroblast cell line was used for comparison purposes.

A short description of data set [4]: DNS cytotoxicity assay, MCF10A. Format: cell-based. To be noted: human, MCF10A non-cancerous cells, 72 hr incubations, read-out: Cell Line CC50 MCF10A*. As for the experimental part:
as §1

A short description of data set [5]: DNS cytotoxicity assay, HS-27 non-cancerous fibroblast. In kind it is cell-based. To be noted: human, Hs-27 non-cancerous foreskin fibroblast cells; 72 hr incubations; non-cancerous; read-out: Cell Line CC50 HS-27*. As to the method:
as §1, §2

The test system of data set [6] is CEM cell line. Put plainly: DNS cytotoxicity assay, CEM. Format: cell-based, human. To be noted: read-out: CEM CC50. From the text:
[…] […] After treatment, images were acquired and analyzed to determine percentages of live/dead cells and their cytotoxicity. […] The Hs-27 non-cancerous human foreskin fibroblast cell line was used for comparison purposes.

Where [7] appears, read: Homo sapiens, CCRF-CEM, Initial Screen, DNS assay.

Like-named read-outs stand apart in the source and are kept apart here.

As to `OO` [H2O2, reference compound], the “percentage of PS externalization” value in data set [1] is approximately 78%.

As a reminder, the CC50 is the concentration that lowers cell viability or growth by half. In the case of `O=C(N/N=C/c1ccc(Br)cc1)c1n[nH]c2c1CCC2` [P3C.1], the cytotoxic concentration (CC50) came to 0.39 µM in data set [2] and 0.097 µM in data set [3]. Further, the half-maximal cytotoxic concentration (CC50) at 72 h in data set [4] came out at 0.42 µM; in data set [5], 0.78 µM. With `O=C(N/N=C/c1cccc2ccccc12)c1n[nH]c2c1CCC2` [P3C.2], the 50% cytotoxic concentration (CC50) in data set [3] stood at 1.83 µM. Besides, the cytotoxic concentration (CC50) at 72 h in data set [4] is 0.53 µM; in data set [5], 4.1 µM.

For `O=C(N/N=C/c1c(O)ccc2ccccc12)c1n[nH]c2c1CCCC2` [P3C.3], the half-maximal cytotoxic concentration (CC50) in data set [3] is 1.61 µM. Further, the half-maximal cytotoxic concentration (CC50) at 72 h was 2.16 µM in data set [4] and more than 10 µM in data set [5]. For `CCN(CC)c1ccc(/C=N/NC(=O)c2n[nH]c3c2CCC3)cc1` [P3C.4] the same measures were 2.91 µM, 2.46 µM and more than 10 µM. For `O=C(N/N=C/c1ccccc1Br)c1n[nH]c2c1CCC2` [P3C.5] the same measures were 9.88 µM, 6.36 µM and more than 10 µM. Take `O=C(N/N=C/c1cc(Br)cc(Br)c1O)c1n[nH]c2c1CCC2` [P3C.6]: the 50% cytotoxic concentration (CC50) in data set [3] stood at 2.53 µM. In addition, the 50% cytotoxic concentration (CC50) at 72 h in data set [4] was 5.85 µM; in data set [5], 9.94 µM. In the same order, the values of `COc1ccc(/C=N/NC(=O)c2n[nH]c3c2CCC3)cc1O` [P3C.10] are 2.91 µM, 2.46 µM and more than 10 µM. Take `O=C1Nc2ccccc2/C1=N/NC(=O)c1n[nH]c2c1CCC2` [SSK-1]: the CC50 in data set [6] (setting [7]) turned out to be 12.1 ± 1.11 µM. Take `O=C1Nc2ccc(F)cc2/C1=N/NC(=O)c1n[nH]c2c1CCC2` [SSK-2]: the half-maximal cytotoxic concentration (CC50) in data set [6] (setting [7]) is more than 10 µM. In the case of `Cc1ccc2c(c1)/C(=N/NC(=O)c1n[nH]c3c1CCC3)C(=O)N2` [SSK-4], the CC50 in data set [6] (Initial Screen, DNS assay) is 5.02 ± 0.78 µM. `O=C(N/N=C1\C(=O)N(CN2CCOCC2)c2ccccc21)c1n[nH]c2c1CCC2` [SSK-5]: the CC50 in data set [6] (Homo sapiens, CCRF-CEM) was more than 10 µM.

Turning to `O=C(N/N=C1\C(=O)N(CN2CCCCC2)c2ccccc21)c1n[nH]c2c1CCC2` [SSK-6], the CC50 in data set [6] (Homo sapiens, CCRF-CEM) was more than 10 µM. For `O=C(N/N=C/c1cn(-c2ccccc2)nc1-c1ccccc1)c1n[nH]c2c1CCC2` [SSK-7], the CC50 in data set [6] (setting [7]) was 8.15 ± 0.23 µM. The same measure, in the same setting: the same measure for `Cc1ccc(-c2nn(-c3ccccc3)cc2/C=N/NC(=O)c2n[nH]c3c2CCC3)cc1` [SSK-8]: 3.6 ± 0.16 µM; for `O=C(N/N=C/c1cn(-c2ccccc2)nc1-c1ccc(Cl)cc1)c1n[nH]c2c1CCC2` [SSK-10]: 7.83 ± 0.13 µM. The same measure, in the same setting: the result for `COc1ccc(-c2nn(-c3ccccc3)cc2/C=N/NC(=O)c2n[nH]c3c2CCC3)cc1` [SSK-11] reads 3.14 ± 0.33 µM; that for `O=C(N/N=C/c1cn(-c2ccccc2)nc1-c1cc2ccccc2oc1=O)c1n[nH]c2c1CCC2` [SSK-12], 8.25 ± 0.26 µM. Still for that read-out and setting: the same measure for `Cc1ccc(Cn2cc(COc3ccc(/C=N/NC(=O)c4n[nH]c5c4CCC5)cc3)nn2)cc1` [SSK-13]: more than 10 µM; for `O=C(N/N=C/c1ccc(OCc2cn(Cc3ccccc3)nn2)cc1)c1n[nH]c2c1CCC2` [SSK-14]: more than 10 µM. Take `O=C(N/N=C/c1ccc(OCc2cn(Cc3ccc([N+](=O)[O-])cc3)nn2)cc1)c1n[nH]c2c1CCC2` [SSK-15]: the CC50 in data set [6] (setting [7]) is more than 10 µM.
